Earlier results in patent US12239707B2, “Photodynamic compositions and methods of use” (MT RESEARCH, LLC, priority 2018, dated 2025).

Details: taken orally; 95% remains intraluminal

fraction of nintedanib absorbed: 5%
Structure (SMILES): COC(=O)c1ccc2c(c1)NC(=O)/C2=C(\Nc1ccc(N(C)C(=O)CN2CCN(C)CC2)cc1)c1ccccc1 [nintedanib]
